From BigSolDB 2.1

CCc1occc(=O)c1O
solubility (mole fraction) (in ethanol, 293.15 K): 0.0599
solubility (mole fraction) (in ethanol, 298.15 K): 0.0798
solubility (mole fraction) (in ethanol, 303.15 K): 0.0974
solubility (mole fraction) (in ethanol, 308.15 K): 0.133
solubility (mole fraction) (in ethanol, 313.15 K): 0.174
solubility (mole fraction) (in ethanol, 318.15 K): 0.227
solubility (mole fraction) (in ethanol, 323.15 K): 0.291
solubility (mole fraction) (in ethanol, 328.15 K): 0.367
solubility (mole fraction) (in ethanol, 333.15 K): 0.459
solubility (mole fraction) (in water, 293.15 K): 0.0021
solubility (mole fraction) (in water, 298.15 K): 0.0023
solubility (mole fraction) (in water, 303.15 K): 0.0027
solubility (mole fraction) (in water, 308.15 K): 0.0033
solubility (mole fraction) (in water, 313.15 K): 0.004
solubility (mole fraction) (in water, 318.15 K): 0.0051
solubility (mole fraction) (in water, 323.15 K): 0.0067
solubility (mole fraction) (in water, 328.15 K): 0.0089
solubility (mole fraction) (in water, 333.15 K): 0.0126
